Data on 61 molecules can be found in patent publication US9200008B2 (ASKA PHARMACEUTICAL CO., LTD., priority 2010, dated 2015).

In the experiment the test system is Human prostate cancer cell lines (PC-3 cells). As to the kind of experiment: Measurement of cell death-inducing activity (Test Example 1). To be noted: PC-3, 48 h, 48 hours after addition, tested at 10, 1, 0.1, 0.025 and 0.00625 μmol/L, qualitative evaluation of 10 fields, read-out: Concentration showing the cell death-inducing activity (cell death-inducing rate not less than 40%). The experiment is classed as cell-based. Put shortly:
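PC-3 cells seeded at 1×10^5 cells/well and grown 48 h at 37 °C, 5% CO2, then exposed to compound at 10, 1, 0.1, 0.025 and 0.00625 μmol/L (DMSO control) for a further 48 h. Activity was called where cell death-inducing rate was not less than 40%.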
As for `Cc1cccnc1-c1nc(C)c(C(=O)N/N=C/c2cc(C)c(O)c(C)c2)s1` [Example 23-119], the minimal effective concentration was determined as 10 µM.
As for `CCn1nc(-c2ccc(C)cc2C)cc1NC(=O)OCc1ccc2nn(C)cc2c1` [Example 9-296], the figure is 1 µM; as for `COc1ccc(/C=N/NC(=O)c2cc(-c3ccc(Cl)cc3)c[nH]2)cc1O` [Example 24-2, 4-(4-Chlorophenyl)-1H-pyrrole-2-carboxylic acid [1-(3-hydroxy-4-methoxyphenyl)methylidene]hydrazide], 1 µM; as for `COc1ccc(/C=N/NC(=O)c2sc(-c3ccccc3OC)nc2C)cc1O` [Example 23-14], 0.1 µM.
As for `COc1ccccc1-c1nc(C)c(C(=O)N/N=C/c2ccc3ncccc3c2)s1` [Example 23-97], the figure is 0.1 µM; as for `CCc1nc(-c2ccc(C)cc2OC)sc1NC(=O)OCc1ccc2c(c1)nc1n2CCC1` [Example 9-171], 0.025 µM.
As for `COc1cc(Cl)ccc1-c1nc(C)c(NC(=O)OCc2ccc3c(c2)nc2n3CCC(C)C2)s1` (stereo not shown) [Example 9-120], the figure is 0.1 µM; as for `COc1cc(C)ccc1-c1cc(COC(=O)Nc2ccc3c(c2)nc2n3CCCC2)sn1` [Example 47-6], 0.025 µM; as for `COc1ccc(-c2cc(NC(=O)OCc3ccc4c(c3)ncn4C)n(C)n2)c(OC)c1` [Example 9-230], 0.025 µM.
On to `COc1ccc(/C=N/NC(=O)c2sc(-c3ccc(Cl)cc3OC)nc2C)cc1C` [Example 23-82], for which the minimal effective concentration amounted to 0.1 µM.
As for `Cc1nc(-c2ccc(F)cc2Cl)sc1NC(=O)OCc1ccc2c(cnn2C)c1` [Example 9-131], the figure is 0.1 µM; as for `CCn1nc(-c2ccc(C)cc2C)cc1COC(=O)Nc1ccc2c(cnn2C)c1` [Example 13-132], 1 µM; as for `CCc1nc(-c2ccc(C)cc2C)sc1NC(=O)OCc1ccc2nn(C)cc2c1` [Example 9-366], 0.1 µM.
In the case of `CCn1cnc2cc(COC(=O)Nc3cnc(-c4ccc(Cl)cc4OC)s3)ccc21` [Example 9-177] it was 0.1 µM.
For `COc1ccc(/C=N/NC(=O)c2sc(-c3ccc(Cl)cc3)nc2C)c(Cl)c1O` [Example 23-61], the minimal effective concentration stood at 1 µM.
In the case of `CCn1ncc2cc(COC(=O)Nc3sc(-c4ccc(F)cc4C)nc3C)ccc21` [Example 9-140], the minimal effective concentration turned out to be 0.025 µM.
In the case of `COc1cc(Cl)ccc1-c1nc(C)c(NC(=O)OCc2ccc3c(c2)nc2n3CCOC2)s1` [Example 9-93] it was 0.00625 µM; in that of `CCc1nc(-c2ccc(F)cc2C)sc1NC(=O)OCc1ccc2c(c1)ncn2CC` [Example 9-167], 0.025 µM; in that of `CCn1nc(-c2ccc(Cl)cc2OC)cc1NC(=O)OCc1ccc2c(c1)ncn2C` [Example 9-222], 0.00625 µM.
With `Cc1cc(/C=N/NC(=O)c2snc(-c3ccc(Cl)cc3Cl)c2N)ccc1O` [Example 27-14, 4-Amino-3-(2,4-dichlorophenyl)isothiazole-5-carboxylic acid[1-(4-hydroxy-3-methylphenyl)methylidene]hydrazide], the minimal effective concentration is 10 µM.
In the case of `COc1ccccc1-c1nc(C)c(NC(=O)OCc2ccc3c(c2)nc2n3CCOC2)s1` [Example 9-91] it was 0.025 µM; in that of `COc1ccc(/C=N/NC(=O)c2sc(-c3ccc(Cl)cc3)nc2C(F)(F)F)cc1O` [Example 23-18], 10 µM; in that of `Cc1cc(Cl)ccc1-c1nc(C)c(COC(=O)Nc2ccc3c(c2)nc2n3CCOC2)s1` [Example 13-26], 0.00625 µM.
As for `COCc1nc2cc(NC(=O)OCc3cc(-c4ccc(C)cc4OC)nn3C)ccc2n1C` [Example 13-93], the figure is 1 µM.
As for `COc1ccc(/C=N/NC(=O)c2sc(C)nc2C)cc1O` [Example 23-132], the figure is 10 µM; as for `CCn1nnc2cc(COC(=O)Nc3sc(-c4ccc(Cl)cc4C)nc3C)ccc21` [Example 9-28], 0.025 µM.
Consider `CCn1cnc2cc(COC(=O)Nc3sc(-c4ccc(C)cc4OC)nc3C)ccc21` [Example 9-60], for which the minimal effective concentration is 0.00625 µM.
As for `CCn1nc(-c2ccc(C)cc2C)cc1COC(=O)Nc1ccc2c(c1)nc1n2CCCC1` [Example 13-123], the figure is 0.025 µM.
Consider `CCn1nc(-c2ccc(C)cc2C)cc1COC(=O)Nc1ccc2c(c1)nc1n2CCC1` [Example 13-111], for which the minimal effective concentration came to 0.00625 µM.
In the case of `COc1ccc(/C=N/NC(=O)c2cc(-c3ccccc3OC)ns2)cc1O` [Example 27-7] it was 0.1 µM.
In the case of `COc1ccc(/C=N/NC(=O)c2sc(-c3ccccc3O)nc2C)cc1O` [Example 23-57] it was 10 µM; in that of `COc1ccc(/C=N/NC(=O)c2sc(-c3ccccc3F)nc2C)cc1O` [Example 23-71], 1 µM.
In the case of `CCCc1nc(-c2ccc(Cl)cc2OC)sc1NC(=O)OCc1ccc2c(c1)ncn2C` [Example 9-183] it was 1 µM; in that of `COc1cc(F)ccc1-c1cc(NC(=O)OCc2ccc3nn(C)cc3c2)n(C)n1` [Example 9-290], 0.1 µM; in that of `CCn1nc(-c2ccc(C)cc2C)cc1COC(=O)Nc1ccc2c(c1)nc1n2CCOC1` [Example 13-104], 0.025 µM.
With `CCn1nc(-c2ccc(C)cc2OC)cc1COC(=O)Nc1ccc2c(c1)nc1n2CCOC1` [Example 13-102], the minimal effective concentration is 0.025 µM.
In the case of `Cc1ccccc1-c1cc(NC(=O)OCc2ccc3c(c2)nc(C)n3C)n(C)n1` [Example 9-238] it was 10 µM; in that of `CCn1c(C)nc2cc(NC(=O)OCc3sc(-c4ccc(C)cc4C)nc3C)ccc21` [Example 13-20], 1 µM.
As for `CCc1nc(-c2ccc(Cl)cc2OC)sc1NC(=O)OCc1ccc2nn(C)cc2c1` [Example 9-364], the figure is 0.025 µM; as for `CCc1nc(-c2ccccc2OC)sc1NC(=O)OCc1ccc2c(c1)nc1n2CCCC1` [Example 9-351], 1 µM.
In the case of `COc1ccccc1-c1cc(COC(=O)Nc2ccc3c(c2)nc2n3CCC2)n(C)n1` [Example 13-105] it was 0.025 µM.
Regarding `COc1cc(C)ccc1-c1cc(NC(=O)OCc2ccc3c(c2)nc2n3CCC2)n(C)n1` [Example 9-261], the minimal effective concentration was found to be 0.025 µM.
As for `COc1cc(Cl)ccc1-c1cc(COC(=O)Nc2ccc3c(c2)nc2n3CCCC2)n(C)n1` [Example 13-118], the figure is 0.00625 µM.
As for `COc1cc(F)ccc1-c1cc(COC(=O)Nc2ccc3c(c2)nc2n3CCC2)n(C)n1` [Example 13-106], the minimal effective concentration was 0.00625 µM.
As for `COc1ccc(/C=N/NC(=O)c2cnc(-c3ccc(Cl)cc3)[nH]2)cc1O` [Example 25-1, 2-(4-Chlorophenyl)-3H-imidazole-4-carboxylic acid[1-(3-hydroxy-4-methoxyphenyl)methylidene]hydrazide], the figure is 10 µM; as for `COc1cc(Cl)ccc1-c1nc(C)c(NC(=O)OCc2ccc3nn(C)cc3c2)s1` [Example 9-144], 0.025 µM; as for `CCn1cnc2cc(COC(=O)Nc3cc(-c4ccc(Cl)cc4Cl)nn3C)ccc21` [Example 9-209], 0.025 µM.
As for `COc1ccc(/C=N/NC(=O)c2sc(-c3cc(C)ccc3C)nc2C)cc1O` [Example 23-126], the figure is 1 µM.
`CCn1nc(-c2ccc(F)cc2OC)cc1NC(=O)OCc1ccc2c(c1)nc1n2CCOC1` [Example 9-246]: the minimal effective concentration came to 0.1 µM.
In the case of `COc1cccc(-c2nc(C)c(C(=O)N/N=C/c3cc(C)c(O)c(C)c3)s2)c1C` [Example 23-131] it was 1 µM; in that of `COc1ccccc1-c1cc(COC(=O)Nc2ccc3c(c2)nc2n3CCOC2)n(C)n1` [Example 13-95], 0.025 µM.
In the case of `COc1cc(Cl)ccc1-c1nc(C)c(NC(=O)OCc2ccc3c(c2)CCO3)s1` [Example 9-7] it was 10 µM; in that of `Cc1cc(Cl)ccc1-c1nc(C)c(NC(=O)OCc2ccc3c(c2)nc2n3CCC2)s1` [Example 9-107], 0.025 µM.
In the case of `COc1cc(C)ccc1-c1cc(COC(=O)Nc2ccc3c(c2)nc2n3CCCC2)n(C)n1` [Example 13-120] it was 0.025 µM; in that of `CCn1nc(-c2ccc(Cl)cc2Cl)cc1NC(=O)OCc1ccc2c(cnn2C)c1` [Example 9-276], 1 µM; in that of `O=C(N/N=C/c1ccc(OC(F)F)c(O)c1)c1cc(-c2ccc(Cl)cc2Cl)ns1` [Example 27-2], 10 µM.
With `Cc1cc(F)ccc1-c1nc(C)c(COC(=O)Nc2ccc3c(c2)nc2n3CCCC2)s1` [Example 13-34], the minimal effective concentration worked out at 0.025 µM.
In the case of `Cc1cc(Cl)ccc1-c1nc(C)c(NC(=O)OCc2ccc3c(ccn3C)c2)s1` [Example 9-31] it was 1 µM; in that of `COc1ccccc1-c1cc(C(=O)N/N=C/c2ccc3c(c2)nc2n3CCOC2)sn1` [Example 49-4, 3-(2-Methoxyphenyl)isothiazole-5-carboxylic acid[1-(3,4-dihydro-1H-2-oxa-4a,9-diazafluoren-7-yl)methylidene]hydrazide], 10 µM.
As for `COc1cc(Cl)ccc1-c1cc(C(=O)N/N=C/c2cc(C)c(O)c(C)c2)n(C)c1` [Example 23-169, 4-(4-Chloro-2-methoxyphenyl)-1-methyl-1H-pyrrole-2-carboxylic acid (4-hydroxy-3,5-dimethylbenzylidene)hydrazide], the minimal effective concentration came to 10 µM.
As for `Cc1cc(Cl)ccc1-c1nc(C)c(COC(=O)Nc2ccc3c(c2)nc2n3CCCCC2)s1` [Example 13-39], the figure is 1 µM.
